Where “and” joins values, the source holds several entries; their conditions need not be identical. Identical values can stand only once. Toxic doses and inconclusive results are not listed.
Tested on: L1210 leukemia ip in BDF1 mice, survival T/C
Assay: NCI In Vivo Anticancer Drug Screen. Data for tumor model L1210 Leukemia (intraperitoneal) in B6D2F1 (BDF1) mice
Conditions: endpoint: mean survival time, higher = longer survival
Procedure, shortened: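 Tumor cells were implanted, animals were treated, and survival was followed. The result divides the treated measurement by the vehicle-control measurement.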

[1] = dose: 100.0 mg/kg/injection, schedule: Q01DX009 (ip), vehicle: Klucel (hydroxypropylcellulose) (HPC)
[2] = dose: 200.0 mg/kg/injection, schedule: Q01DX009 (ip), vehicle: Klucel (hydroxypropylcellulose) (HPC)
[3] = dose: 400.0 mg/kg/injection, schedule: Q01DX009 (ip), vehicle: Klucel (hydroxypropylcellulose) (HPC)
[4] = dose: 100.0 mg/kg/injection, schedule: Q01DX009 (ip), vehicle: saline with Tween-80
[5] = dose: 200.0 mg/kg/injection, schedule: Q01DX009 (ip), vehicle: saline with Tween-80
[6] = dose: 400.0 mg/kg/injection, schedule: Q01DX009 (ip), vehicle: saline with Tween-80
[7] = dose: 100.0 mg/kg/injection, schedule: Q04DX002 (ip), vehicle: Klucel (hydroxypropylcellulose) (HPC)
[8] = dose: 200.0 mg/kg/injection, schedule: Q04DX002 (ip), vehicle: Klucel (hydroxypropylcellulose) (HPC)
[9] = dose: 400.0 mg/kg/injection, schedule: Q04DX002 (ip), vehicle: Klucel (hydroxypropylcellulose) (HPC)
[10] = dose: 100.0 mg/kg/injection, schedule: Q04DX002 (ip), vehicle: saline with Tween-80
[11] = dose: 200.0 mg/kg/injection, schedule: Q04DX002 (ip), vehicle: saline with Tween-80
[12] = dose: 400.0 mg/kg/injection, schedule: Q04DX002 (ip), vehicle: saline with Tween-80
[13] = dose: 75.0 mg/kg/injection, schedule: Q01DX001 (ip), vehicle: saline
[14] = dose: 150.0 mg/kg/injection, schedule: Q01DX001 (ip), vehicle: saline
[15] = dose: 10.0 mg/kg/injection, schedule: Q01DX001 (ip), vehicle: saline
[16] = dose: 20.0 mg/kg/injection, schedule: Q01DX001 (ip), vehicle: saline
[17] = dose: 40.0 mg/kg/injection, schedule: Q01DX001 (ip), vehicle: saline
[18] = dose: 100.0 mg/kg/injection, schedule: Q04DX003 (ip), vehicle: saline with Tween-80
[19] = dose: 200.0 mg/kg/injection, schedule: Q04DX003 (ip), vehicle: saline with Tween-80
[20] = dose: 400.0 mg/kg/injection, schedule: Q04DX003 (ip), vehicle: saline with Tween-80
[21] = dose: 100.0 mg/kg/injection, schedule: Q01DX001 (ip), vehicle: saline
[22] = dose: 200.0 mg/kg/injection, schedule: Q01DX001 (ip), vehicle: saline
[23] = dose: 400.0 mg/kg/injection, schedule: Q01DX001 (ip), vehicle: saline

Structure (SMILES): O=C(Nc1ccccc1O)c1ccc(Cl)c(Cl)c1
- T/C [1]: 100 % of control
- T/C [2]: 107 % of control
- T/C [3]: 102 % of control

Structure (SMILES): O=C/C=C/c1cccnc1
- T/C (dose: 25.0 mg/kg/injection, schedule: Q01DX009 (ip), vehicle: saline with Tween-80): 92 % of control
- T/C (dose: 50.0 mg/kg/injection, schedule: Q01DX009 (ip), vehicle: saline with Tween-80): 100 % of control
- T/C [4]: 101 % of control
- T/C [5]: 99 % of control

Structure (SMILES): CC1(C)C(=O)C(=O)C2CCCCC21 (stereo not given)
- T/C [4]: 97 % of control
- T/C [5]: 110 % of control
- T/C [6]: 92 % of control

Structure (SMILES): Cc1ccc(C(=O)OCc2ccccc2CN2CCCCC2C)cc1 (stereo not given)
- T/C [7]: 94 % of control
- T/C [8]: 108 % of control
- T/C [9]: 90 % of control

Structure (SMILES): CO[C@H]1Nc2c(ccc(C)c2O)C(=O)N2C=C(/C=C/C(N)=O)C[C@@H]12
- T/C (dose: 0.05 mg/kg/injection, schedule: Q01DX015 (ip), vehicle: saline): 104 % of control
- T/C (dose: 0.08 mg/kg/injection, schedule: Q04DX003 (ip), vehicle: saline with Tween-80): 112 % of control
- T/C (dose: 0.1 mg/kg/injection, schedule: Q01DX015 (ip), vehicle: saline): 112 % of control
- T/C (dose: 0.16 mg/kg/injection, schedule: Q04DX003 (ip), vehicle: saline with Tween-80): 93 % of control
- T/C (dose: 0.2 mg/kg/injection, schedule: Q01DX015 (ip), vehicle: saline): 112 % of control
- T/C (dose: 0.21 mg/kg/injection, schedule: Q01DX015 (ip), vehicle: saline): 114 % of control
- T/C (dose: 0.25 mg/kg/injection, schedule: Q01DX001 (ip), vehicle: saline): 117 % of control
- T/C (dose: 0.36 mg/kg/injection, schedule: Q01DX015 (ip), vehicle: saline): 118 % of control
- T/C (dose: 0.4 mg/kg/injection, schedule: Q01DX015 (ip), vehicle: saline): 110 % of control
- T/C (dose: 0.5 mg/kg/injection, schedule: Q01DX001 (ip), vehicle: saline): 117 % of control
- T/C (dose: 0.6 mg/kg/injection, schedule: Q01DX015 (ip), vehicle: saline): 115 % of control and 117 % of control
- T/C (dose: 1.0 mg/kg/injection, schedule: Q01DX015 (ip), vehicle: saline): 98 % of control
- T/C (dose: 1.3 mg/kg/injection, schedule: Q01DX001 (ip), vehicle: saline): 156 % of control
- T/C (dose: 25.0 micrograms/kg/injection, schedule: Q04DX003 (ip), vehicle: saline): 121 % of control
- T/C (dose: 50.0 micrograms/kg/injection, schedule: Q04DX003 (ip), vehicle: saline): 102 % of control
- T/C (dose: 100.0 micrograms/kg/injection, schedule: Q04DX003 (ip), vehicle: saline): 114 % of control
- T/C (dose: 200.0 micrograms/kg/injection, schedule: Q04DX003 (ip), vehicle: saline): 107 % of control

Structure (SMILES): CC(C)=CCC1(CC=C(C)C)C(=O)N(c2ccccc2)N(c2ccccc2)C1=O
- T/C (dose: 50.0 mg/kg/injection, schedule: Q04DX002 (ip), vehicle: Klucel (hydroxypropylcellulose) (HPC)): 93 % of control
- T/C [1]: 93 % of control
- T/C [7]: 101 % of control
- T/C [2]: 98 % of control
- T/C [8]: 97 % of control
- T/C [3]: 90 % of control

Structure (SMILES): COC1OC(C[N+](=O)[O-])C(OC(C)=O)C(OC(C)=O)C1OC(C)=O (stereo not given)
- T/C [10]: 102 % of control
- T/C [11]: 109 % of control
- T/C [12]: 95 % of control

Structure (SMILES): O=C(Nc1ccc(C(F)(F)F)c([N+](=O)[O-])c1)c1ccc(C(=O)Nc2ccc(C(F)(F)F)c([N+](=O)[O-])c2)cc1
- T/C (dose: 100.0 mg/kg/injection, schedule: Q01DX001 (ip), vehicle: other): 96 % of control
- T/C (dose: 200.0 mg/kg/injection, schedule: Q01DX001 (ip), vehicle: other): 93 % of control
- T/C (dose: 400.0 mg/kg/injection, schedule: Q01DX001 (ip), vehicle: other): 86 % of control

Structure (SMILES): CCCCCCCCCCCCCCOS(=O)(=O)O
- T/C (dose: 37.5 mg/kg/injection, schedule: Q04DX003 (ip), vehicle: saline): 100 % of control
- T/C [13]: 95 % of control
- T/C (dose: 75.0 mg/kg/injection, schedule: Q04DX003 (ip), vehicle: saline): 94 % of control
- T/C [14]: 92 % of control
- T/C (dose: 150.0 mg/kg/injection, schedule: Q04DX003 (ip), vehicle: saline): 92 % of control

Structure (SMILES): O=C(O)C=C(CBr)CBr
- T/C [15]: 93 % of control
- T/C [16]: 94 % of control
- T/C [17]: 109 % of control

Structure (SMILES): ClCCCC1(c2ccc(Oc3ccccc3)cc2)OCCO1
- T/C [4]: 88 % of control
- T/C [18]: 105 % of control
- T/C [5]: 92 % of control
- T/C [19]: 95 % of control
- T/C [6]: 93 % of control
- T/C [20]: 94 % of control

Structure (SMILES): CNC(=O)Oc1cccc(NC(=O)OCC(C)(C)C)c1
- T/C [18]: 96 % of control
- T/C [19]: 102 % of control
- T/C [20]: 97 % of control

Structure (SMILES): CC(=O)OC1COC(NC(=O)NNc2ccccc2)C(OC(C)=O)C1OC(C)=O (stereo not given)
- T/C (dose: 100.0 mg/kg/injection, schedule: Q01DX009 (ip), vehicle: saline): 88 % of control
- T/C (dose: 100.0 mg/kg/injection, schedule: Q04DX003 (ip), vehicle: water): 94 % of control
- T/C (dose: 200.0 mg/kg/injection, schedule: Q01DX009 (ip), vehicle: saline): 92 % of control
- T/C (dose: 200.0 mg/kg/injection, schedule: Q04DX003 (ip), vehicle: water): 97 % of control
- T/C (dose: 400.0 mg/kg/injection, schedule: Q04DX003 (ip), vehicle: water): 96 % of control

Structure (SMILES): COC(=O)C1C(C(=O)OC)C2(Cl)C(Cl)=C(Cl)C1(Cl)C2(Cl)Cl (stereo not given)
- T/C [1]: 98 % of control
- T/C [2]: 104 % of control

Structure (SMILES): C/C(CC(C)C)=N\NC(=O)Nc1cccc(Cl)c1C
- T/C (dose: 100.0 mg/kg/injection, schedule: Q01DX001 (ip), vehicle: Klucel (hydroxypropylcellulose) (HPC)): 86 % of control
- T/C [1]: 99 % of control and 103 % of control
- T/C [7]: 98 % of control and 92 % of control
- T/C (dose: 200.0 mg/kg/injection, schedule: Q01DX001 (ip), vehicle: Klucel (hydroxypropylcellulose) (HPC)): 93 % of control
- T/C [2]: 96 % of control and 99 % of control
- T/C [8]: 103 % of control and 92 % of control
- T/C (dose: 400.0 mg/kg/injection, schedule: Q01DX001 (ip), vehicle: Klucel (hydroxypropylcellulose) (HPC)): 93 % of control
- T/C [3]: 93 % of control and 95 % of control
- T/C [9]: 95 % of control

Structure (SMILES): CC(=O)Nc1ccc(S(=O)(=O)NC2(c3ccccc3)C(=O)N(C)C(=O)N(C)C2=O)cc1
- T/C [21]: 91 % of control
- T/C [22]: 94 % of control
- T/C [23]: 103 % of control

Structure (SMILES): CC(=O)C(Cc1ccccc1)(c1ccccc1)c1ccccc1
- T/C (dose: 50.0 mg/kg/injection, schedule: Q01DX001 (ip), vehicle: saline): 103 % of control
- T/C [21]: 103 % of control
- T/C [22]: 97 % of control
- T/C [23]: 97 % of control

Structure (SMILES): S=C(CC(C(=S)N1CCOCC1)N1CCOCC1)N1CCOCC1 (stereo not given)
- T/C (dose: 25.6 mg/kg/injection, schedule: Q04DX002 (ip), vehicle: saline with Tween-80): 98 % of control
- T/C (dose: 64.0 mg/kg/injection, schedule: Q04DX002 (ip), vehicle: saline with Tween-80): 102 % of control
- T/C [18]: 98 % of control
- T/C (dose: 160.0 mg/kg/injection, schedule: Q04DX002 (ip), vehicle: saline with Tween-80): 87 % of control
- T/C [19]: 104 % of control
- T/C [12]: 98 % of control
- T/C [20]: 101 % of control

Structure (SMILES): COc1ccc(CN2CCCN(Cc3ccc(OC)cc3)C2c2ccc(NC(C)=O)cc2)cc1
- T/C (dose: 100.0 mg/kg/injection, schedule: Q01DX001 (ip), vehicle: acetone): 100 % of control
- T/C (dose: 200.0 mg/kg/injection, schedule: Q01DX001 (ip), vehicle: acetone): 100 % of control

Structure (SMILES): CCC(=O)C1(c2cccc(O)c2)CCN(C)CC1
- T/C [13]: 94 % of control
- T/C [14]: 97 % of control

Structure (SMILES): C1=COC(/C=N/Nc2nnc(N/N=C/C3CCC=CO3)c3ccccc23)CC1 (stereo not given)
- T/C (dose: 5.0 mg/kg/injection, schedule: Q01DX001 (ip), vehicle: saline): 98 % of control
- T/C [15]: 111 % of control
- T/C [16]: 96 % of control
- T/C [17]: 102 % of control

Structure (SMILES): CC1(C)C=CC2CC2(C)C(=O)C1 (stereo not given)
- T/C [10]: 98 % of control
- T/C [11]: 112 % of control
- T/C [12]: 102 % of control
